# In paper PMC12606464, “Investigating NFE2L1 activators for targeted protein aggregate clearance: a follow-up study” (RSC Medicinal Chemistry, 2025):
# Legend:
# [1] = tested on: ubiquitin-proteasome system; experiment: Ub-G76V-GFP reporter degradation in U2OS cells; format: cell-based
# From the text: (§1) We next examined whether the selected RUN compounds activate the NFE2L1 pathway in a stress-independent manner, while preserving normal ubiquitin-dependent proteasomal degradation. This distinction is crucial, as the therapeutic benefit of NFE2L1 activation lies in its ability to alleviate proteotoxic stress and target disease-related proteins for degradation without compromising normal proteostasis. To assess this, U2OS cells stably expressing the short-lived fluorescent reporter Ub-G76V-GFP were treated with various concentrations of RUN compounds. […] We also examined whether compound-induced activation of NFE2L1 could be attributed to the generation of reactive oxygen species (ROS). To test this, the 3×PSMA4-ARE-LUC reporter assay was performed in the presence or absence of the antioxidant N-acetyl-L-cysteine (NAC). A decrease in reporter activity upon NAC treatment would indicate pathway activation through oxidative stress.
# RUN compound (5 µM) for 8 hours. Fluorescence intensity was normalized to cell viability (measured by the alamarBlue assay) and compared to vehicle control (DMSO). Unlike the […]
# as means ± SD from three independent experiments (n = 3). Statistical analysis was performed using a multiple unpaired t-test with Welch’s correction, with adjustment for multiple comparisons by the Holm–Šídák method (α = 0.05). ****p<0.0001. Detailed results of the analysis are shown in Supplementary Table S14. […]
# 2.4 Monitoring protein degradation using UbG76V-GFP reporter cells
# U2OS cells stably expressing the Ub-G76V-GFP reporter were seeded into 96-well plates at and cultured overnight under standard conditions. On the following day, cells were treated with the indicated test compounds or DMSO vehicle control for 8 hours. After treatment, GFP fluorescence intensity was measured, providing a readout of proteasome-dependent degradation of the Ub-G76V-GFP substrate. Cell viability was then assessed in the same wells using the alamarBlue assay according to the manufacturer’s protocol. Viability values were used for normalization of fluorescence data to account for differences in cell number. Accumulation of GFP signal relative to DMSO-treated controls was interpreted as reduced degradation of UPS substrates, indicating potential effects of the compounds on the natural protein turnover.
# Statistical comparison of RUN compounds with ASC-JM17 was performed using a multiple unpaired t-test with Welch’s correction, with adjustment for multiple comparisons by the Holm–Šídák method (α = 0.05) in GraphPad Prism (v 10.6.1). […]
# RNA was extracted using […]
# the RNeasy® Plus Micro Kit according to the manufacturer’s instructions. Complementary DNA (cDNA) was synthesized from RNA using either t he TATAA GrandScript cDNA Supermix (TATAA Biocenter) or the QuantiTect® Reverse Transcription Kit (Qiagen), following the respective protocols. Quantitative RT -PCR was performed on a LightCycler® 480 instrument (Roche Life Science) using the TATAA SYBR® Gr andMaster® Mix (TATAA […]
# Biocenter). Gene expression levels were normalized to RPLP0, and relative expression was calculated using the ΔΔCt method. Data were expressed as fold change relative to the corresponding DMSO control. Statistical analysis of changes in gene expression was performed w ith a ratio paired t-test corrected for multiple comparisons using Holm-Šídák's method (α = 0.05) in GraphPad Prism (v 10.6.1).
# Table S1. Sequences of primer pairs used in the qRT -PCR analysis of gene expression.
# [2] = tested on: NFE2L1 pathway (DDI2-dependent) in HCT116 cells; experiment: 3×PSMA4-ARE-LUC reporter in HCT116 WT and DDI2 knockout cells; format: cell-based, human
# Method: (§2) Fig. 1 (A) Targeted library screening of RUN compounds using the 3×PSMA4-ARE-LUC dual reporter assay in HEK293 cells. Cells were exposed to RUN compounds (5 μM) for 16 hours, and luciferase activity was measured. Data are presented as the mean ± SD from three independent experiments (n = 3). Results are shown as a fold change in luminescence relative to DMSO-treated cells. Selected hit compounds are highlighted in distinct colours. (B) RUN-89 specifically activates the NFE2L1 pathway. The DDI2 knockout (KO) and parental (WT) HCT116 cells were transfected with the 3×PSMA4-ARE-LUC reporter and treated with 0.5 μM bortezomib (BTZ) and 5 μM RUN-89 for 16 hours. Data are presented as the Geomean ± GeoSD of three independent experiments (n = 3). Statistical analysis was performed on log2-transformed values using two-way repeated-measures ANOVA followed by Šídak's multiple comparison test. (C) RUN-89 selectively triggers downstream signaling events associated with NFE2L1 gene expression. HEK293 cells were transfected with lipid nanoparticles (LNPs) carrying siRNAs targeting NFE2L1 or NFE2L2. LNPs formulated with non-targeting siRNA served as a negative control. Following 24 hours of incubation, cells were treated with 7.5 μM RUN-89 or DMSO (vehicle) for an additional 16 hours. Expression of the proteasomal subunit gene PSMC4 was then quantified by RT-qPCR. Data are shown as the Geomean ± GeoSD from three independent biological replicates (n = 3). Log2-transformed data were analyzed using two-way repeated-measures ANOVA with the Geisser–Greenhouse correction, followed by Tukey's multiple comparison test with individual variances computed for each comparison. Additional results for NFE2L1, NFE2L2, PSMB7, and PSMD12 are presented in SI Fig. S10.
# To clarify whether the representative compound RUN-89 activates the NFE2L1-specific luciferase reporter independently of the KEAP1–NFE2L2 pathway, we used the 3×PSMA4-ARE-LUC dual reporter in previously published DDI2 knockout HCT116 cells (from ATCC CCL-247 (RRID:CVCL_0291)), in which the protease essential for NFE2L1 activation is disrupted. […] These findings indicate that RUN-89 activates the reporter construct through NFE2L1.
# 2 Biology Experimental Procedures […]
# (§3) Cell lines were sourced from the ATCC (USA) and/or ECACC (UK), namely HCT116 (human colorectal carcinoma), ATCC CCL-247 (RRID:CVCL_0291), HEK-293 (human embryonic kidney), ATCC CRL-1573 (RRID:CVCL_0045), SH-SY5Y (human neuroblastoma), ATCC CRL-2266 (RRID:CVCL_0019). The characteristics of DDI2 knockout cells derived from HCT116 cells have been described previously (Sedlacek et al., 2025). All cell lines were tested for mycoplasma contamination. Most of the cell lines were cultured in Dulbecco's Modified Eagle Medium (DMEM) enriched with 10% fetal bovine serum (FBS) and 2 mM L-glutamine, under standard conditions of 37 °C with 5% CO₂. DNA transfection was performed with Lipofectamine 2000, following the manufacturer's instructions. […]
# alamarBlue assay according to the standard protocol.(1)
# 2.3 Dual luciferase phenotypic assays
# HEK293-derived cells stably expressing the 3×PSMA4-ARE-Luc reporter were maintained at low to mid passage numbers before use. For each experiment, cells were transiently transfected with the pRL-TK Renilla luciferase plasmid using Lipofectamine 2000.
# Approximately 5–6 hours post-transfection, cells were seeded into plate format according to the experiment (384-well plate mostly). On the following day, cells were treated with the indicated test compounds or DMSO vehicle control for 16 hours (unless otherwise specified).
# After treatment, cells were lysed and luciferase activities were quantified using the Dual-Luciferase® Reporter Assay System according to the manufacturer’s instructions and established protocols.(2, 3) For assays using the CMV-XBP-Gluc construct encoding Gaussia […]
# NFE2L1 pathway [3] = experiment: 3×PSMA4-ARE-LUC dual luciferase reporter assay in HEK293 cells; format: cell-based, human; details: Homo sapiens; 5 μM, 16 h, HEK293, luminescence relative to DMSO-treated cells; read-out: NFE2L1 activation [5 μM]
# From the text: In our previous work,[43] we developed a library of NFE2L1 stimulators using a cell-based luciferase reporter assay. This system was based on three tandem copies of the antioxidant response element (ARE) derived from the NFE2L1 target gene proteasome subunit alpha type-4 (3xPSMA4, PSMA4-ARE-LUC). It was designed to detect the proteasome “bounce-back” response induced by proteasome inhibitors such as MG132 or bortezomib.[22,43,45,46] The reporter assay was adapted to a 384-well format and used to evaluate a new set of RUN compounds designed around the structural framework of the RUN-47 activator. We focused on identifying compounds that increased the 3×PSMA4-ARE-LUC signal (Fig. 1A), while simultaneously assessing cytotoxicity (see the SI, Fig. S2). […] In contrast, thiourea- and urea-containing derivatives generally produced only weak to intermediate responses, rarely exceeding a fold change of 7.
# as §2
# Figure S1: Concentration–response of luciferase cell-based assay (PSMA4-ARE-luc2P reporter) on treatment with RUN-81, RUN-89, and RUN-94. Concentration is plotted on the X-axis. Dose–response relationships were analyzed using a four-parameter logistic curve (4PL), or a bell-shaped dose-response curve, both with weighting 1/Y^2. Dotted lines represent 95% confidence bands. Calculated EC₅₀ values, curve parameters, and asymmetrical confidence intervals are summarized in the accompanying table . Data are presented as mean ± SD from four independent experiments (n=4).
# (§4) 2 Biology Experimental Procedures
# (§5) Safety statement: No unexpected or unusually high safety hazards were encountered. […]
# Most of the cell lines were cultured in Dulbecco's Modified Eagle Medium (DMEM) enriched with 10% fetal bovine serum (FBS) and 2 mM L-glutamine, under standard conditions of 37 °C with 5% CO₂. DNA transfection was performed with Lipofectamine 2000, following the manufacturer's instructions. Transgenic cells were then selected with either G418 (400 µg/mL) or hygromycin B (450 µg/mL), based on the selection marker encoded by the plasmid used. Cell viability was evaluated using the […]
# HEK293 cells = experiment: alamarBlue cytotoxicity assessment in HEK293 cells; format: cell-based, human; details: HEK293, alamarBlue, 16 h; concentration not given
# Method: Figure S2: Concentration-dependent cytotoxicity assessment of RUN compounds.
# HEK293 cells were treated for 16 hours with increasing concentrations of RUN compounds (1.25 µM; 2.5 µM; 5; 7.5 and 10 µM) or DMSO (negative control). Cell viability was determined using the alamarBlue assay following the protocol of Riss.(1) Data are presented as means ± SD from three independent experiments (n = 3). Statistical analysis was done using repeated measures one-way ANOVA with Geisser–Greenhouse correction, followed by Dunnett’s multiple comparisons test. *p<0.05. Detailed results of the analysis are shown in […]
# (1 picture or pasted object on this page, not shown here)
# as §4, §5
# as §3, with “instructions. Transgenic cells were then selected with either G418 (400 µg/mL) or hygromycin B (450 µg/mL), based on the selection marker encoded by the plasmid used.” for “instructions.”
# NFE2L1 pathway [4] = experiment: 3×PSMA4-ARE-LUC reporter with or without N-acetyl-L-cysteine (NAC); format: cell-based, human; details: HEK293, 5 μM, 16 h
# From the text: as §1, with “stress. […]” for “stress.”
# To determine whether RUN compounds activate the NFE2L1 pathway via reactive oxygen species (ROS) generation or through Keap1-NRF2 pathway crosstalk, we used the 3xPSMA4-ARE-LUC dual reporter assay in HEK293 cells. […] A reduction in luminescence signal upon NAC co-treatment would indicate that the compound activates the reporter via ROS-mediated mechanism or Keap1-NRF2-dependent oxidative/electrophilic stress. […]
smiles,measurement,setting,value
"COc1ccc(/C=C/C(=O)C(CC2CCC2)C(=O)/C=C/c2ccc(OC)c(OC)c2)cc1OC [ASC-JM-17, reference compound]","Ub-G76V-GFP reporter assay, mean","[1]; U2OS cells, Fig. S3",4.073
same,Ub-G76V-GFP degradation (ubiquitin-proteasome system function),"[1]; U2OS, 5 μM, 8 h, versus DMSO",impaired proteasomal degradation
"CC(C)C[C@H](NC(=O)[C@H](Cc1ccccc1)NC(=O)c1cnccn1)B(O)O [BTZ, bortezomib, reference compound]","Mean log2-transformed reporter fold change, HCT116 KO 04","[2]; DDI2-/- clone KO 04, 0.5 μM BTZ or 5 μM RUN-89, 16 h, DMSO = 0",0.1712
same,"Mean log2-transformed reporter fold change, HCT116 KO 11","[2]; DDI2-/- clone KO 11, 0.5 μM BTZ or 5 μM RUN-89, 16 h, DMSO = 0",0.1696
same,Reporter activity in DDI2-deficient cells,"[2]; DDI2 knockout HCT116, in contrast to wild-type cells",neither the proteasome inhibitor bortezomib nor RUN-89 induced reporter activity
same,"Mean log2-transformed reporter fold change, HCT116 WT","[2]; WT (DDI2+/+), 0.5 μM BTZ or 5 μM RUN-89, 16 h, DMSO = 0",1.529
COc1ccc(/C=C2\CNC/C(=C\c3ccc(OC)c(OC)c3)C2=O)cc1OC [RUN-84],fold induction at 5 µM,NFE2L1 pathway [3],4
same,Tox [% of ctrl.],HEK293 cells,73% of ctrl.
same,NFE2L1 reporter activation in the presence of NAC,NFE2L1 pathway [4],reduction in activation
